{"source": "paper PMC8231556", "about": "“Inhibiting Endothelial Cell Function in Normal and Tumor Angiogenesis Using BMP Type I Receptor Macrocyclic Kinase Inhibitors” (Cancers, 2021)", "experiment_in_all_cases": "radiometric kinase profiling (33 PanQinase)", "format_in_all_cases": "biochemical", "key": {"[1]": {"target": "T1, ABL1 (Homo sapiens, UniProt P00519)", "T1 construct": "purchased Proqinase, Germany", "details": "read-out: Inhibitory effect (%) ABL1", "how_it_was_run": "(§1)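 Enzyme/substrate mixes were incubated with [γ-33P]-ATP and compound (added as a 0.1 μM solution in 10% DMSO) at 30 °C for 60 min, then stopped with H3PO4 and washed with NaCl. 33P incorporation was scintillation-counted, and residual activity (%) was normalized to untreated control and background.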"}, "[2]": {"target": "T2, CAMK1D (Homo sapiens, UniProt Q8IU85)", "T2 construct": "purchased Proqinase, Germany", "details": "read-out: Inhibitory effect (%) CAMK1D", "how_it_was_run": "as §1"}, "[3]": {"target": "T3, CAMK2D (Homo sapiens, UniProt Q13557)", "T3 construct": "purchased Proqinase, Germany", "details": "read-out: Inhibitory effect (%) CAMK2D", "how_it_was_run": "as §1"}, "[4]": {"target": "T4, CAMKK1 (Homo sapiens, UniProt Q8N5S9)", "T4 construct": "purchased Proqinase, Germany", "T4 sequence (Q8N5S9 whole entry)": "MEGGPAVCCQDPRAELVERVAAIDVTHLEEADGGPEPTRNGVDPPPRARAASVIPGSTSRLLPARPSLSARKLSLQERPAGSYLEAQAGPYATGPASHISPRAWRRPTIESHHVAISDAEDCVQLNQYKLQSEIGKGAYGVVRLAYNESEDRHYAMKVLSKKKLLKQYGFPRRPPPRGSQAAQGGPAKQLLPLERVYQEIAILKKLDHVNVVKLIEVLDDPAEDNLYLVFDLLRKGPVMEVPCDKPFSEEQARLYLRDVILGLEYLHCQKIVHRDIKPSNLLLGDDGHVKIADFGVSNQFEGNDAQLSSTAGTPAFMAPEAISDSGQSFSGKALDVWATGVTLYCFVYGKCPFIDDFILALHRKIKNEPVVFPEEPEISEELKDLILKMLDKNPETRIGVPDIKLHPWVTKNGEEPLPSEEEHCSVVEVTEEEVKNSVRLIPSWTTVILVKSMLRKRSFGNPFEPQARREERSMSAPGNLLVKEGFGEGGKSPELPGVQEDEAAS", "details": "read-out: Inhibitory effect (%) CAMKK1", "how_it_was_run": "as §1"}, "[5]": {"target": "T5, CHEK2 (Homo sapiens, UniProt O96017)", "T5 construct": "purchased Proqinase, Germany", "T5 sequence (O96017 whole entry)": "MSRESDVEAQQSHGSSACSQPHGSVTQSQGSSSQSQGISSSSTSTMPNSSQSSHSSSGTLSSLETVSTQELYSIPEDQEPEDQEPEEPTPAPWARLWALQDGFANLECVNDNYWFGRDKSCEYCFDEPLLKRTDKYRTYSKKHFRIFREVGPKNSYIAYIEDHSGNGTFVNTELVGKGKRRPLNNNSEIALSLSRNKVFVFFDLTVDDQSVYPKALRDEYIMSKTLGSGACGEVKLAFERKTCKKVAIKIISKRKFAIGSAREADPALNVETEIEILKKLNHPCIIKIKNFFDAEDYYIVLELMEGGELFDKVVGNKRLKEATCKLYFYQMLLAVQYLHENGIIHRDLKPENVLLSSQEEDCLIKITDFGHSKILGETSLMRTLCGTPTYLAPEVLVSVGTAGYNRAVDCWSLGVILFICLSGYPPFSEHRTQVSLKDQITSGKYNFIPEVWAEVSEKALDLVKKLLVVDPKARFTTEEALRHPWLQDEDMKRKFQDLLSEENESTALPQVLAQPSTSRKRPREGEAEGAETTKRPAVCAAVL", "details": "read-out: Inhibitory effect (%) CHEK2", "how_it_was_run": "as §1"}, "[6]": {"target": "T6, JAK2 (Homo sapiens, UniProt O60674)", "T6 construct": "purchased ProQinase (33PanQinase Activity Assay)", "T6 sequence (O60674 whole entry)": "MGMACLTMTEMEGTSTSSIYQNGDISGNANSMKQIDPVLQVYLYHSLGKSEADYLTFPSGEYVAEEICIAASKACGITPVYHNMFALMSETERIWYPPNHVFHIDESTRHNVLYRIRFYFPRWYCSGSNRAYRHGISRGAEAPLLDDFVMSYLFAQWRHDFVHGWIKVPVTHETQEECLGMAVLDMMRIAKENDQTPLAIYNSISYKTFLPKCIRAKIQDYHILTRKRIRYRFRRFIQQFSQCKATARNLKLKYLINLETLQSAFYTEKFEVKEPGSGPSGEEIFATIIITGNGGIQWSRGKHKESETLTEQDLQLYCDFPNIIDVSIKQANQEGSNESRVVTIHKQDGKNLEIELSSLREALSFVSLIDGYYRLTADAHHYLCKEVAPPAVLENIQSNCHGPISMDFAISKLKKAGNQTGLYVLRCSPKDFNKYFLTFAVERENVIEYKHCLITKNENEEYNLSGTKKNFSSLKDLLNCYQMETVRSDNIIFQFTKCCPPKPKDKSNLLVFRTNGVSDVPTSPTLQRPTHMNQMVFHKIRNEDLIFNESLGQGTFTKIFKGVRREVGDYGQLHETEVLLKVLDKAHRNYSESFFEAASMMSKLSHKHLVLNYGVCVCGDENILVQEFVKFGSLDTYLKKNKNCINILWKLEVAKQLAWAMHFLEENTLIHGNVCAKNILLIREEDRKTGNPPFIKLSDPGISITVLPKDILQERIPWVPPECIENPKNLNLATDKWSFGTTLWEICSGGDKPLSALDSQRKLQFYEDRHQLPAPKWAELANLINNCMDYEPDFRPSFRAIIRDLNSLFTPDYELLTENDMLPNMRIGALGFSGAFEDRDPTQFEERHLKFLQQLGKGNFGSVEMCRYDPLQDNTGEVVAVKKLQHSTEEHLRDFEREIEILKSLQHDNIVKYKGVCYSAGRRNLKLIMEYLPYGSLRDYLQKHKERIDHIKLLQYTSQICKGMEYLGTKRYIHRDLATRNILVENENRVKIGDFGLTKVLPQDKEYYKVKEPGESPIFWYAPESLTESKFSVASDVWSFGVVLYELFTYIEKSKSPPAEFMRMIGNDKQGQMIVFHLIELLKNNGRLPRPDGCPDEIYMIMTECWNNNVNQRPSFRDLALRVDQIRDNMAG", "details": "read-out: Inhibitory effect (%) JAK2", "how_it_was_run": "as §1"}, "[7]": {"target": "T7, KDR (Homo sapiens, UniProt P35968)", "T7 construct": "purchased ProQinase (33PanQinase Activity Assay)", "T7 sequence (P35968 20-1356)": "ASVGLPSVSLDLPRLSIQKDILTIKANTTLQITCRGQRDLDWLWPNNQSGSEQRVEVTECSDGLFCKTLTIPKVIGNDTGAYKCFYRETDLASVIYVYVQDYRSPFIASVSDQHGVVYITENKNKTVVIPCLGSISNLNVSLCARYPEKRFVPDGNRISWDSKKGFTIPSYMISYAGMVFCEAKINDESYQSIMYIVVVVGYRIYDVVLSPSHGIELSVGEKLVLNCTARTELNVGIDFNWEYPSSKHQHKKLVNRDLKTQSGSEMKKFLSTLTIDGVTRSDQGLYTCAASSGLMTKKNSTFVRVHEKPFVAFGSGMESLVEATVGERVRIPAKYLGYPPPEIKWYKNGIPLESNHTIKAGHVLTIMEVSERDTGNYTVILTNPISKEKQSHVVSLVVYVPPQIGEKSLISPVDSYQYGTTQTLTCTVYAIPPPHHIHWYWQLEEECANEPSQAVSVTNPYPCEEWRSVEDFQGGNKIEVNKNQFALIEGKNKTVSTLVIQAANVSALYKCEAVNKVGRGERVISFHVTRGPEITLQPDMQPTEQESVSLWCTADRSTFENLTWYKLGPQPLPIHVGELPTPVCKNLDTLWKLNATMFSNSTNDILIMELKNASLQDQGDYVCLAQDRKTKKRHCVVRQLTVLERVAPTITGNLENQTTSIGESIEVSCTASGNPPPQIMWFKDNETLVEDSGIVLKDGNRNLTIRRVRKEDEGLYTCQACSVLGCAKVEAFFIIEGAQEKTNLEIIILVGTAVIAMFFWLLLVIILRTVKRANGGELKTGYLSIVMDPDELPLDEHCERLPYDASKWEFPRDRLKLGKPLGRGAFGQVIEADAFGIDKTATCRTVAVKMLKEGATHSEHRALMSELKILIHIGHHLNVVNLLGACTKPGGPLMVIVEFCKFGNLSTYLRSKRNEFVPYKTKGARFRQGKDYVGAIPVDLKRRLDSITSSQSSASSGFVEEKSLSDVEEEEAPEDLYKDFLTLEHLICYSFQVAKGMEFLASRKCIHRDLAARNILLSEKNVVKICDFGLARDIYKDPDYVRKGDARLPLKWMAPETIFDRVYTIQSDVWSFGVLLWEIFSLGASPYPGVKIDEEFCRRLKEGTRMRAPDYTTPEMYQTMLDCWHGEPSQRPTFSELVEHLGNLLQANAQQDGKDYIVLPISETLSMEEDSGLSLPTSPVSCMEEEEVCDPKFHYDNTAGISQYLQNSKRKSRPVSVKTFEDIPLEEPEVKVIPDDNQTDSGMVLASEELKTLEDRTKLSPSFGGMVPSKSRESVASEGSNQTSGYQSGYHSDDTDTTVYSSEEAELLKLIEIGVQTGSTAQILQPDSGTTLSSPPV", "details": "read-out: Inhibitory effect (%) KDR", "how_it_was_run": "as §1"}, "[8]": {"target": "T8, MAP2K1 (Homo sapiens, UniProt Q02750)", "T8 construct": "purchased ProQinase (33PanQinase Activity Assay)", "details": "read-out: Inhibitory effect (%) MAP2K1", "how_it_was_run": "as §1"}, "[9]": {"target": "T9, MAP3K10 (Homo sapiens, UniProt Q02779)", "T9 construct": "purchased ProQinase (33PanQinase Activity Assay)", "details": "read-out: Inhibitory effect (%) MAP3K10", "how_it_was_run": "as §1"}, "[10]": {"target": "T10, MAP3K5 (Homo sapiens, UniProt Q99683)", "T10 construct": "purchased ProQinase (33PanQinase Activity Assay)", "T10 sequence (Q99683 1-1374)": "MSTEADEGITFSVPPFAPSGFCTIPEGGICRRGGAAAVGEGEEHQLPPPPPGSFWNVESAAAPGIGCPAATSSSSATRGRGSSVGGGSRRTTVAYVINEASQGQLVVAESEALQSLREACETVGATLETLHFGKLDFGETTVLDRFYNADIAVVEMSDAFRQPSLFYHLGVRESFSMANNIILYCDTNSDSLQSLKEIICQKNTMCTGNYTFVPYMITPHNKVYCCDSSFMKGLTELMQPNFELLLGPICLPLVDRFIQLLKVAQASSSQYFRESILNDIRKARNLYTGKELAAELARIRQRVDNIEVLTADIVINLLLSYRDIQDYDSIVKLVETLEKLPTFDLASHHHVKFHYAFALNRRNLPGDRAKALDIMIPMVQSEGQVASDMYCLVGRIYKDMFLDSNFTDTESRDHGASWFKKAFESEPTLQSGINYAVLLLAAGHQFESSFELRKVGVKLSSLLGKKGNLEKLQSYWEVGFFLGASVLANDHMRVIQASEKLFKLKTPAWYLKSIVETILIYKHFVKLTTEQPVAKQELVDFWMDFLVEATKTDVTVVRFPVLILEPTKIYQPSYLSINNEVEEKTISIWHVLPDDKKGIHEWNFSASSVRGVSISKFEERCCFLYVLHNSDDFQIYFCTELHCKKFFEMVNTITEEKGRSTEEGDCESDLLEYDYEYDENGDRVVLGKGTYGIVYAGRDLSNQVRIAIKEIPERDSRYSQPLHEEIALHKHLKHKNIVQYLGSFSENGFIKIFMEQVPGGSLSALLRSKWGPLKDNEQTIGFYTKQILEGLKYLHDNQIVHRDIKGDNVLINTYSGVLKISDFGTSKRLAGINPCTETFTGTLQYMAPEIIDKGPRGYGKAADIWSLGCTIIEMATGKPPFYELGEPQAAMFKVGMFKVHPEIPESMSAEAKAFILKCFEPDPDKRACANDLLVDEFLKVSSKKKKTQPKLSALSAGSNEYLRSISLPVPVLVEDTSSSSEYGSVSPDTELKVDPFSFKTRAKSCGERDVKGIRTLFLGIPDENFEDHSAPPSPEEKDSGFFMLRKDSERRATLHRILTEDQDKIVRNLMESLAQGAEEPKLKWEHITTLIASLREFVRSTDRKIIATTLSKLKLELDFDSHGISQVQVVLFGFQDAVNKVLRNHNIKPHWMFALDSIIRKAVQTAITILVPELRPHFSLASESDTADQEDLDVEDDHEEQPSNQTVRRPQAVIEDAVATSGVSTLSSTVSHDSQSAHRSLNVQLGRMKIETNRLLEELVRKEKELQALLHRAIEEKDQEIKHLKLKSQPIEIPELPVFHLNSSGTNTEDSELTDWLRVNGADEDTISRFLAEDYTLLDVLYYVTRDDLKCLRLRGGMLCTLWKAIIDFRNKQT", "details": "read-out: Inhibitory effect (%) MAP3K5", "how_it_was_run": "as §1"}, "[11]": {"target": "T11, MAPK14 (Homo sapiens, UniProt Q16539)", "T11 construct": "purchased ProQinase (33PanQinase Activity Assay)", "details": "read-out: Inhibitory effect (%) MAPK14", "how_it_was_run": "as §1"}, "[12]": {"target": "T12, MET (Homo sapiens, UniProt P08581)", "T12 construct": "purchased ProQinase (33PanQinase Activity Assay)", "details": "read-out: Inhibitory effect (%) MET", "how_it_was_run": "as §1"}, "[13]": {"target": "T13, PRKACA (Homo sapiens, UniProt P17612)", "T13 construct": "purchased ProQinase (33PanQinase Activity Assay)", "details": "read-out: Inhibitory effect (%) PRKACA", "how_it_was_run": "as §1"}, "[14]": {"target": "T14, ROCK2 (Homo sapiens, UniProt O75116)", "T14 construct": "purchased ProQinase (33PanQinase Activity Assay)", "T14 sequence (O75116 whole entry)": "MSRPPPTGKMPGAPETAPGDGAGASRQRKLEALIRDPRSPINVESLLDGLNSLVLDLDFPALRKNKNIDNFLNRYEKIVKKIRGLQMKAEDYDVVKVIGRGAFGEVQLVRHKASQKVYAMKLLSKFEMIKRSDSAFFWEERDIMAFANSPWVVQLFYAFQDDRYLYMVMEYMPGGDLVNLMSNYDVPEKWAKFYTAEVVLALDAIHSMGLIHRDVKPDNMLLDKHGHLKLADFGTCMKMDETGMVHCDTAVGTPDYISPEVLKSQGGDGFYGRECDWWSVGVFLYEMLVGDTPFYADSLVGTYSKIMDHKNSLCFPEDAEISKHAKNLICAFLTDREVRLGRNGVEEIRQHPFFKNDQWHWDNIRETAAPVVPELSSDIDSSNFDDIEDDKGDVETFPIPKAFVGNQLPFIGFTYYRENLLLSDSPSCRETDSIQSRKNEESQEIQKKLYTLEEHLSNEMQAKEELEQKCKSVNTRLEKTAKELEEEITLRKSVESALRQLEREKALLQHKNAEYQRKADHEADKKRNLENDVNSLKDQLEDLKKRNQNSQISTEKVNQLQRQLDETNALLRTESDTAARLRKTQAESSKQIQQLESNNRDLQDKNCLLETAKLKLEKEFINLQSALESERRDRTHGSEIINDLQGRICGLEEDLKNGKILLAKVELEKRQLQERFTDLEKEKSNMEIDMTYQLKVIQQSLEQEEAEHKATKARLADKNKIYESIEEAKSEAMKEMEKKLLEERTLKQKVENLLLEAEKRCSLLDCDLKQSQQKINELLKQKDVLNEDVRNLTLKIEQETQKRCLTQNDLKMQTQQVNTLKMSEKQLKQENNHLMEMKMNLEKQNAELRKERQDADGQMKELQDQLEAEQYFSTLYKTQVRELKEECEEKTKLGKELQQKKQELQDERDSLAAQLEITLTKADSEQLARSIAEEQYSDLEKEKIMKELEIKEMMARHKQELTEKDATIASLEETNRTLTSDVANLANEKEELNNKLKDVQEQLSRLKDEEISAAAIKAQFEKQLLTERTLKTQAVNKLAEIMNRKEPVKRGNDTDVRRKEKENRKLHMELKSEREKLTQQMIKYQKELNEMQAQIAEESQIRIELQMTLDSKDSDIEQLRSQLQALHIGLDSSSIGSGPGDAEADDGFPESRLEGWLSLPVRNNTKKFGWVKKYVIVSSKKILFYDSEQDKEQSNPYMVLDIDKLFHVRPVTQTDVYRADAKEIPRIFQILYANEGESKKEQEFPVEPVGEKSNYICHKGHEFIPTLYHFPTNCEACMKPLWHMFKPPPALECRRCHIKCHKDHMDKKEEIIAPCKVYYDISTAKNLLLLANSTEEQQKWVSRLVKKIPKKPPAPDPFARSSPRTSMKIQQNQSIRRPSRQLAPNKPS", "details": "read-out: Inhibitory effect (%) ROCK2", "how_it_was_run": "as §1"}, "[15]": {"target": "T15, SRPK1 (Homo sapiens, UniProt Q96SB4)", "T15 construct": "purchased ProQinase (33PanQinase Activity Assay)", "details": "read-out: Inhibitory effect (%) SRPK1", "how_it_was_run": "as §1"}}, "data": [{"smiles": "c1ccc2c(-c3cnn4cc(-c5ccc(N6CCNCC6)cc5)cnc34)ccnc2c1", "note": "[LDN-193189, reference compound]", "values": [{"measurement": "inhibition at 0.1 µM", "setting": "[1]", "result": 12.5, "unit": "%"}, {"measurement": "inhibition at 0.1 µM", "setting": "[2]", "result": 4.59, "unit": "%"}, {"measurement": "inhibition at 0.1 µM", "setting": "[3]", "result": -13.3, "unit": "%"}, {"measurement": "inhibition at 0.1 µM", "setting": "[4]", "result": 0.77, "unit": "%"}, {"measurement": "inhibition at 0.1 µM", "setting": "[5]", "result": -0.88, "unit": "%"}, {"measurement": "inhibition at 0.1 µM", "setting": "[6]", "result": 5.83, "unit": "%"}, {"measurement": "inhibition at 0.1 µM", "setting": "[7]", "result": -6.35, "unit": "%"}, {"measurement": "inhibition at 0.1 µM", "setting": "[8]", "result": 11.1, "unit": "%"}, {"measurement": "inhibition at 0.1 µM", "setting": "[9]", "result": -26.4, "unit": "%"}, {"measurement": "inhibition at 0.1 µM", "setting": "[10]", "result": 6.9, "unit": "%"}, {"measurement": "inhibition at 0.1 µM", "setting": "[11]", "result": 0.3, "unit": "%"}, {"measurement": "inhibition at 0.1 µM", "setting": "[12]", "result": 1.47, "unit": "%"}, {"measurement": "inhibition at 0.1 µM", "setting": "[13]", "result": -14.1, "unit": "%"}, {"measurement": "inhibition at 0.1 µM", "setting": "[14]", "result": 13.1, "unit": "%"}, {"measurement": "inhibition at 0.1 µM", "setting": "[15]", "result": -16.5, "unit": "%"}]}, {"smiles": "CN1CCc2cccc(c2)Nc2nccc(n2)N2CCCc3cc(ccc32)C1", "note": "[OD16]", "values": [{"measurement": "inhibition at 0.1 µM", "setting": "[1]", "result": -20.1, "unit": "%"}, {"measurement": "inhibition at 0.1 µM", "setting": "[2]", "result": -5.9, "unit": "%"}, {"measurement": "inhibition at 0.1 µM", "setting": "[3]", "result": -3.48, "unit": "%"}, {"measurement": "inhibition at 0.1 µM", "setting": "[4]", "result": -1.72, "unit": "%"}, {"measurement": "inhibition at 0.1 µM", "setting": "[5]", "result": 7.12, "unit": "%"}, {"measurement": "inhibition at 0.1 µM", "setting": "[6]", "result": 50.2, "unit": "%"}, {"measurement": "inhibition at 0.1 µM", "setting": "[7]", "result": 0.8, "unit": "%"}, {"measurement": "inhibition at 0.1 µM", "setting": "[8]", "result": 5.48, "unit": "%"}, {"measurement": "inhibition at 0.1 µM", "setting": "[9]", "result": 1.85, "unit": "%"}, {"measurement": "inhibition at 0.1 µM", "setting": "[10]", "result": -11.3, "unit": "%"}, {"measurement": "inhibition at 0.1 µM", "setting": "[11]", "result": -3.1, "unit": "%"}, {"measurement": "inhibition at 0.1 µM", "setting": "[12]", "result": 5.95, "unit": "%"}, {"measurement": "inhibition at 0.1 µM", "setting": "[13]", "result": -19.5, "unit": "%"}, {"measurement": "inhibition at 0.1 µM", "setting": "[14]", "result": 42.6, "unit": "%"}, {"measurement": "inhibition at 0.1 µM", "setting": "[15]", "result": -24.9, "unit": "%"}]}, {"smiles": "CN1CCC(=O)NCCNc2ccn3ncc(c3n2)-c2cccc(c2)C1", "note": "[OD29]", "values": [{"measurement": "inhibition at 0.1 µM", "setting": "[1]", "result": 18.7, "unit": "%"}, {"measurement": "inhibition at 0.1 µM", "setting": "[2]", "result": -7.41, "unit": "%"}, {"measurement": "inhibition at 0.1 µM", "setting": "[3]", "result": 9.77, "unit": "%"}, {"measurement": "inhibition at 0.1 µM", "setting": "[4]", "result": -29.5, "unit": "%"}, {"measurement": "inhibition at 0.1 µM", "setting": "[5]", "result": -0.87, "unit": "%"}, {"measurement": "inhibition at 0.1 µM", "setting": "[6]", "result": 14.4, "unit": "%"}, {"measurement": "inhibition at 0.1 µM", "setting": "[7]", "result": 37.6, "unit": "%"}, {"measurement": "inhibition at 0.1 µM", "setting": "[8]", "result": 7.68, "unit": "%"}, {"measurement": "inhibition at 0.1 µM", "setting": "[9]", "result": 1.57, "unit": "%"}, {"measurement": "inhibition at 0.1 µM", "setting": "[10]", "result": 0.68, "unit": "%"}, {"measurement": "inhibition at 0.1 µM", "setting": "[11]", "result": 45.2, "unit": "%"}, {"measurement": "inhibition at 0.1 µM", "setting": "[12]", "result": -3.42, "unit": "%"}, {"measurement": "inhibition at 0.1 µM", "setting": "[13]", "result": 9.09, "unit": "%"}, {"measurement": "inhibition at 0.1 µM", "setting": "[14]", "result": -0.26, "unit": "%"}, {"measurement": "inhibition at 0.1 µM", "setting": "[15]", "result": 21.5, "unit": "%"}]}]}
